Data reported in US20140303092A1 (CHIMERIX, INC., priority 2011, published 2014).

Test: Study HDP-CDV-201: safety and tolerability (adverse events, laboratory abnormalities, discontinuations)
Type: in vivo, human (adult allogeneic HSCT recipients)
Details: Cohort 4A, 100 mg BIW
Description: Clinical Studies of HDP-CDV were performed and described in detail in the following Examples. For example, HDP-CDV-201 is a placebo-controlled, dose-escalating trial in HSCT CMV (R+) recipients, evaluating the ability of HDP-CDV to prevent or control CMV infection was carried out. Five cohorts were established in which participants or subjects received either placebo or the HDP-CDV orally, in doses ranging from 40 mg weekly (QW) to 200 mg twice weekly (BIW). Subjects who were post-HSCT were enrolled at the time of engraftment and randomized to HDP-CDV or placebo (3 to 1 ratio) and received blinded therapy until approximately 100 day post-transplantation. HDP-CDV doses were 40 mg QW, 100 mg QW, 200 mg QW, 200 mg BIW and 100 mg BIW. Escalation to the next dose was decided by the data monitoring committee after review of the safety data from the previous Cohort. Subjects who developed CMV disease or CMV infection requiring pre-emptive therapy with local standard of care were discontinued from blinded therapy and followed for 4 weeks. Subjects who completed treatment with blinded therapy were followed for 8 weeks post-therapy.
Data from Study HDP-CDV-201 also provided characterization of the safety and tolerability profile of HDP-CDV when administered for the prevention or control of CMV infection in high risk (R^+) post-HSCT adult subjects.
The Safety population (SAFETY) included all randomized subjects who took at least one dose of study treatment. This population was used to summarize safety outcomes based on the treatment actually received, in cases where a subject was treated contrary to the randomization schedule.
The safety and tolerability profile of HDP-CDV, including subject demographics and Baseline characteristics; the AE profile; and laboratory abnormalities of interest were analyzed in the cohorts followed in this investigation.
Subjects completing the treatment period received a full course of study medication; those completing the entire study attended visits through 8 weeks of follow up. Subjects who discontinued treatment may have done so for protocol specified reasons (e.g. development of clinically significant CMV infection requiring preemptive treatment with excluded anti-CMV medications) or for other reasons (e.g., withdrawal, adverse events, loss to follow-up). The disposition of subjects in Study HDP-CDV-201 during the double-blind, placebo-controlled treatment period (through Week 11) is listed by dosing Cohort in TABLE 23.
Adverse events were examined by severity to ensure that all safety signals were identified in this study population. Because of the frequency of events in HSCT recipients, particular attention was given to evaluation of Grade 3 […], 4 (severe), and 5 (fatal) adverse events.
Only those preferred terms for which at least one Grade 3 or higher event was experienced in any treatment group are listed. Cytomegalovirus-related AEs are excluded from this analysis.
HDP-CDV is a lipid conjugate of CDV. Because CDV is known to have adverse effects on renal function and bone marrow, decreased GFR and persistent neutropenia were identified as AEs of special interest. Key renal and hematological (TABLE 30) laboratory parameters were measured and listed below by Study HDP-CDV-201 treatment groups. TABLE 30 includes abnormal levels of serum creatinine, neutrophils, platelets, WBCs, and hemoglobin and includes data at Screening and during the treatment period.
A common metric for unit based dosing of medications is by weight (mg/kg). When the distribution of weights was examined for all subjects participating in the study, the median was 78 kg and the lower 25th percentile weight was approximately 65 kg, which translates to a cut-off of ˜3 mg/kg for a 200 mg total weekly dose. Based upon this approach, a cut-off of 3 mg/kg was used to assess the frequency of diarrhea and associated GI AEs reported for the subjects in Cohorts 3 or 4a (TABLE 40).

Compound: CCCCCCCCCCCCCCCCOCCCOP(=O)(O)COC(CO)Cn1ccc(N)nc1=O (centres unmarked) [HDP-CDV]
- ALT (Screening) >3 × ULN-5 × ULN, subjects: 1 (2.2%)
- ALT (Screening) >5 × ULN-10 × ULN, subjects: 1 (2.2%)
- ALT (Screening) >10 × ULN-20 × ULN, subjects: 1 (2.2%)
- ALT (Screening) >20 × ULN, subjects: 0
- ALT (any time during therapy) >3 × ULN-5 × ULN, subjects: 10 (20.0%)
- ALT (any time during therapy) >5 × ULN-10 × ULN, subjects: 4 (8.0%)
- ALT (any time during therapy) >10 × ULN-20 × ULN, subjects: 1 (2.0%)
- ALT (any time during therapy) >20 × ULN, subjects: 1 (2.0%)
- AST (Screening) >3 × ULN-5 × ULN, subjects: 1 (2.2%)
- AST (Screening) >5 × ULN-10 × ULN, subjects: 1 (2.2%)
- AST (Screening) >10 × ULN-20 × ULN, subjects: 1 (2.2%)
- AST (Screening) >20 × ULN, subjects: 0
- AST (any time during therapy) >3 × ULN-5 × ULN, subjects: 2 (4.0%)
- AST (any time during therapy) >5 × ULN-10 × ULN, subjects: 3 (6.0%)
- AST (any time during therapy) >10 × ULN-20 × ULN, subjects: 0
- AST (any time during therapy) >20 × ULN, subjects: 0
- Alkaline Phosphatase (Screening) >2.5-5.0 × ULN, subjects: 0
- Alkaline Phosphatase (Screening) >5.0-20.0 × ULN, subjects: 0
- Alkaline Phosphatase (Screening) >20.0 × ULN, subjects: 0
- Alkaline Phosphatase (Screening) >ULN-[…] ULN, subjects: 8 (17.4%)
- Alkaline Phosphatase (any time during therapy) >2.5-5.0 × ULN, subjects: 3 (6.0%)
- Alkaline Phosphatase (any time during therapy) >5.0-20.0 × ULN, subjects: 0
- Alkaline Phosphatase (any time during therapy) >20.0 × ULN, subjects: 0
- Alkaline Phosphatase (any time during therapy) >ULN-[…] ULN, subjects: 11 (22.0%)
- GI AE Leading to Study Drug Discontinuation: Abdominal pain, subjects: 1 (2.0%)
- GI AE Leading to Study Drug Discontinuation: Diarrhoea, subjects: 2 (4.0%)
- GI AE Leading to Study Drug Discontinuation: Dyspepsia, subjects: 0
- GI AE Leading to Study Drug Discontinuation: Nausea, subjects: 1 (2.0%)
- GI AE Leading to Study Drug Discontinuation: Vomiting, subjects: 1 (2.0%)
- GI AEs Leading to Study Drug Discontinuation: Total subjects discontinued: 5 (10.0%)
- Gastrointestinal AE Abdominal discomfort, subjects: 4 (8.0%)
- Gastrointestinal AE Abdominal distention, subjects: 0
- Gastrointestinal AE Abdominal pain upper, subjects: 2 (4.0%)
- Gastrointestinal AE Abdominal pain, subjects: 13 (26.0%)
- Gastrointestinal AE Constipation, subjects: 2 (4.0%)
- Gastrointestinal AE Diarrhoea, subjects: 26 (52.0%)
- Gastrointestinal AE Diverticulum intestinal haemorragic, subjects: 0
- Gastrointestinal AE Dyspepsia, subjects: 4 (8.0%)
- Gastrointestinal AE Dysphagia, subjects: 0
- Gastrointestinal AE Epigastric discomfort, subjects: 0
- Gastrointestinal AE Flatulence, subjects: 3 (6.0%)
- Gastrointestinal AE GERD, subjects: 0
- Gastrointestinal AE Gastritis, subjects: 0
- Gastrointestinal AE Haematochezia, subjects: 0
- Gastrointestinal AE Haemorroids, subjects: 1 (2.0%)
- Gastrointestinal AE Large intestinal ulcer, subjects: 0
- Gastrointestinal AE Nausea, subjects: 17 (34.0%)
- Gastrointestinal AE Odynophagia, subjects: 0
- Gastrointestinal AE Oesophagitis, subjects: 0
- Gastrointestinal AE Retching, subjects: 2 (4.0%)
- Gastrointestinal AE Vomiting, subjects: 22 (44.0%)
- Hepatobiliary clinical AE Cholelithiasis, subjects: 0
- Hepatobiliary clinical AE Hepatomegaly, subjects: 0
- Hepatobiliary clinical AE Hyperbilirubinaemia, subjects: 3 (6.0%)
- Hepatobiliary clinical AE Jaundice, subjects: 0
- Hepatobiliary clinical AE Liver injury, subjects: 0
